Columns and labels:
[1] = Reverse phase HPLC for peptide integrity after disulfide bond formation; assay type: physicochemical
Description: (§1) The formation of inter- or intra-chain disulfide bonds was determined by Elman's test and a reverse phase HPLC method. The peptide represented by SEQ. ID NO: 1 was dissolved in 50 mM sodium acetate, pH 5.2, containing 1 mM EDTA to a stock solution of 10 mM. The stock solution was further diluted with either 50 mM sodium acetate buffer or Elman's reaction buffer ([…], pH 8.0, containing 1 mM EDTA) to a final concentration of 0.5 mM. Samples prepared with sodium acetate buffer were kept at 5° C. for HPLC analysis later.
To determine the integrity of the peptide of SEQ. ID NO: 1 after disulfide bond formations, samples in sodium acetate buffer (1G1) and in Elman's reaction buffer (1G2) were subjected to reverse phase HPLC after a 24 hour incubation at 37° C. In particular, a 0–80% acetonitrile gradient in 0.1% TFA was used over 15 minutes at a flow rate of 2 ml/min on a Vydac C-18 column. Detection was at 214 nm.

[2] = test system: human fibroblasts; assay: 3H-thymidine incorporation, proliferative response of human fibroblasts; assay type: cell-based; details: for 3H-Thymidine Incorporation Into Fibroblasts: Table 4 (human fibroblasts per Example 4), 48 hours
Description: (§2) Primary human osteoblasts were trypsinized and cell counts determined. Cells were resuspended at a concentration of 0.5×10^5 cells/ml in growth medium [Dulbeccos Modified Eagles Medium (DMEM) 10% Fetal Bovine Serum (FBS), 100 units Penicillin and 50 μg/ml Streptomycin]. A 100 μl aliquot of cells was added to each well in a 96 well dish. Cells were allowed to adhere for 24 hours and then refed with DMEM containing 0.5% FBS for 24 hours. Thereafter, several concentrations (10, 100, 500 μg/ml final concentration) of peptide in DMEM containing 0.5% FBS were added to different wells in quadruplicate. These plates were incubated in a cell culture incubator at 37° C. 5% CO2 for 48 hours. Subsequently, 0.1 μCi of ^3H-thymidine was added to each well, and incubated at 37° C. for an additional 3 hours prior to harvest. Cells were lysed and the lysate was placed in scintillation fluid and the amount of thymidine incorporated was determined by beta counting (in Counts Per Minute, or CPM).
The effect of the peptide […] (SEQ. ID NO: 1) on stimulation of human fibroblast proliferation was assessed by thymidine incorporation as described above. The experiments were set up as detailed in Example 1. Following serum starvation, cells were treated with the peptide at concentration of 10, 100, and 500 μg/ml of peptide in DMEM containing 0.5% FBS. These plates were incubated at 37° C. in 5% CO2 for 48 hours and processed for analysis as described in Example 1.

[3] = test system: Primary human osteoblasts; assay: 3H-thymidine incorporation, proliferative response of human osteoblasts; assay type: cell-based
Description: as §2
To help determine a maximal stimulation of cell proliferation, the study was repeated with concentrations of 10, 50, 100, and 200 μg/ml final concentration) of the peptide represented by SEQ. ID NO: 1 in DMEM containing 0.5% FBS.
The experiments were set up as described for Example 1, with proliferation assessed by measurement of thymidine incorporation into newly synthesized DNA. […] These plates were incubated at 37° C. in 5% CO2 for 48 hours and processed for analysis as mentioned in Example 1.

[4] = Elman's test (DTNB) for free sulfhydryl groups, with UV measurement; assay type: physicochemical; details: for Free Sulfhydryl Group Content, Optical density At 412 nM: 0.5 mM peptide in Elman's reaction buffer pH 8.0
Description: as §1
The reagent used in Elman's test is 5,5′-dithio-bis-(2-nitrobenzoic acid), also know as DTNB. […] Sulfhydryl groups can be quantitated in a sample by comparison to a standard curve prepared with know concentrations of sulfhydryl-containing compound such as cysteine. The measurement of free sulfhydryl group was performed when the peptide was freshly prepared and after 24 hours incubation at 37° C. The incubation step was designed to mimic the cell culture conditions and to create conditions for inter- or intra-chain disulfide bond formations. To examine the integrity of the peptide after incubation, a UV measurement was performed when the peptide (SEQ. ID NO: 1) was freshly prepared and after 24 hours incubation.

[5] = test system: human chondrocytes; assay: 3H-thymidine incorporation, proliferative response of human chondrocytes; assay type: cell-based; details: for 3H-Thymidine Incorporation Into Chondrocytes: Table 3, 48 hours
Description: as §2
The effect of the peptide […] (SEQ. ID NO: 1) on stimulation of human chondrocyte proliferation was assessed by thymidine incorporation as described above. The experiments were set up as detailed in Example 1. Following serum starvation, cells were treated with the peptide at concentration of 10, 100, and 500 μg/ml of peptide in DMEM containing 0.5% FBS. These plates were incubated at 37° C. in 5% CO2 for 48 hours and processed for analysis as described in Example 1.

[6] = after 24 hrs incubation at 37° C.

CGGGRWCG (synthesized primer) [ID NO: 1, synthesized by Invitrogen Corporation]
disulfide structure formed, reverse phase HPLC ([1]; Elman's reaction buffer pH 8.0 (1G2), 24 hour incubation at 37° C.): formed intra-chain disulfide bonds (ring structure) and not a higher lever structure
integrity of the peptide by reverse phase HPLC ([1]; after 24 hours incubation at 37° C.): intact
sulfhydryl state, reverse phase HPLC ([1]; sodium acetate buffer pH 5.2 (1G1), 24 hours incubation): predominately contained free sulfhydryl groups
stimulation of proliferation of human fibroblasts ([2]; 10, 100, and 500 μg/ml): did not stimulate proliferation
3H-Thymidine Incorporation Into Fibroblasts ([2]; peptide 10 μg/ml): 1281 +/− 86 CPM
3H-Thymidine Incorporation Into Fibroblasts ([2]; peptide 100 μg/ml): 1103 +/− 76 CPM
3H-Thymidine Incorporation Into Fibroblasts ([2]; peptide 500 μg/m1): 1088 +/− 64 CPM
3H-Thymidine Incorporation Into Osteoblasts ([3]; Table 1A, peptide 0 μg/ml, DMEM 0.5% FBS, 48 hours): 591 +/− 39 CPM
stimulation of proliferation as compared to controls treated with 0.1% BSA ([3]; Table 1A, peptide 100 μg/ml): 2.5 fold
3H-Thymidine Incorporation Into Osteoblasts ([3]; Table 1A, peptide 100 μg/ml, DMEM 0.5% FBS, 48 hours): 1228 +/− 157 CPM
stimulation of osteoblast proliferation ([3]; Table 1A, peptide 500 μg/ml): no statistical stimulation
3H-Thymidine Incorporation Into Osteoblasts ([3]; Table 1A, peptide 500 μg/ml, DMEM 0.5% FBS, 48 hours): 629 +/− 46 CPM
3H-Thymidine Incorporation Into Osteoblasts ([3]; Table 1B (repeat study), peptide 10 μg/ml): 807 +/− 45 CPM
3H-Thymidine Incorporation Into Osteoblasts ([3]; Table 1B (repeat study), peptide 50 μg/ml): 948 +/− 62 CPM
3H-Thymidine Incorporation Into Osteoblasts ([3]; Table 1B (repeat study), peptide 100 μg/ml): 1150 +/− 37 CPM
3H-Thymidine Incorporation Into Osteoblasts ([3]; Table 1B (repeat study), peptide 200 μg/ml): 1565 +/− 98 CPM
concentration of maximal stimulation of proliferation (dose dependant) ([3]; Table 1B, 10-200 μg/ml tested): 200 µg/mL
stimulation of proliferation relative to cells cultured in the presence of serum ([3]; Table 1B, maximal stimulation at 200 μg/ml vs 10% FBS): approximately 75%
3H-Thymidine Incorporation Into Osteoblasts ([3]; Table 2 (Example 2), peptide 200 ug/ml): 3446 +/− 333 CPM
stimulation of osteoblast proliferation (fold, words) ([3]; Table 2, peptide 200 ug/ml): two fold
free sulfhydryl group content after incubation ([4]; after 24 hour incubation at 37° C., 412 nM): reduced significantly
Optical density At 280 nM (UV measurement, integrity of the peptide) [4, 6]: 2.037
Free Sulfhydryl Group Content, Optical density At 412 nM [4, 6]: 0.011
change of absorbance at 280 nM ([4]; fresh vs 24 hour old samples): did not change
Optical density At 280 nM (UV measurement, integrity of the peptide) ([4]; freshly prepared): 2.127
Free Sulfhydryl Group Content, Optical density At 412 nM ([4]; freshly prepared): 0.71
stimulation of proliferation of human chondrocytes ([5]; 10, 100, and 500 μg/ml): did not stimulate proliferation
3H-Thymidine Incorporation Into Chondrocytes ([5]; peptide 10 μg/ml): 803 +/− 96 CPM
3H-Thymidine Incorporation Into Chondrocytes ([5]; peptide 100 μg/ml): 726 +/− 88 CPM
3H-Thymidine Incorporation Into Chondrocytes ([5]; peptide 500 μg/ml): 640 +/− 80 CPM

— US7163920B2, “Peptide with osteogenic activity” (Ethicon, Inc., priority 2003, dated 2007)
